Test system: RCS rats
Assay: Retinal degeneration in RCS rats: histological and morphometric analysis of the retina after daily intramuscular injections
Assay type: in vivo, rat
Source text: Royal College Surgeons (RCS) rats were used. In RCS rats, a progressive loss of photoreceptor cells, caused by a recessively autosomal mutation of the RPE (La Vail, 1981), leads to severe visual impairment. Due to the failure of pigment epithelium phagocytosis, rod outer segment material accumulates between the retina and the RPE and results in retinal degeneration. […] The age of the animals in the experiment will hereinafter be referred to in relation with the postnatal day which will be indicated as pn, wherein n=the postnatal day. This disorder is similar to age-related macular degeneration in humans in that a metabolic insufficiency of the RPE cells results in a secondary progressive photoreceptor loss and vision impairment.
Enucleated eyes removed from the orbit eyes were fixated for plastic embedding in epoxy resin (Faktorovitch 1990; La Vail, 1981). The eyes were sectioned parallel to the vertical meridian.
The histological sections which were analyzed originated from the posterior part of the eye, from ora serata to ora serata including the optic nerve. Each histological preparation was analyzed by computerized image analysis. Twelve measurements (six from each side of the optic nerve) were taken at pre-determined points. At each point the number of rows of photoreceptors in the outer nuclear layer (ONL), as well as the thickness of inner plexiform layer (IPL) were determined.
The RCS rats of the experiment were divided into three groups of rats, each group including eight rats (8 eyes). The three groups were as follows:
1. RCS rats at the age of p23 receiving no treatment.
2. RCS rats at the age of p38 receiving no treatment.
3. RCS rats at the age of p23 receiving daily intramuscular injections to the hind leg containing α-MSH analog which was prepared as described above. Each rat received 0.01 micrograms of the α-MSH analog in 0.2 ml PBS in each injection.
The rats were sacrificed at the age of p38, the eyes were enucleated and then subjected to fixation and histological sections were prepared, as described above. The histological preparations of the eyes were examined morphometrically as described above and, in addition, the retinas were also examined by light microscopy.
The effect of α-MSH analog treatment on the retinas of the rats was quantitated by measuring the two following parameters at 11 or 14 points in the retina at various distances from the optic nerve:
An experiment similar to the one described above was also carried out in which the α-MSH analog treatment of Group 3 rats was replaced by α-MSH treatment. The result of this experiment, not shown were similar to the results of the above described experiment.

[1] = RCS rats, daily i.m. injections, compared to untreated rats

Nle^4 D-Phe^7 α-MSH [α-MSH analog] was tested, and the “number of layers of photoreceptors in the ONL (histological preparation, FIG. 3)” value (RCS rat at p38, daily intramuscular injections p23 to p38, 0.01 micrograms per injection, untreated 3-4 layers) was 7-8 layers, the “mean row number in treated higher than in non-treated” value (RCS rats at p38, ONL photoreceptor rows, treated vs non-treated) was 60% and the “mean number of photoreceptor rows in ONL (FIG. 4)” value (RCS rats at p38, daily i.m. injections, 9 out of 11 points of measurement, non-treated 3.5±0.4, p<0.05) was 5.6±0.6 rows. For the same substance, the “thickness of the inner plexiform layer (IPL) (FIG. 5)” value (RCS rats at p38, central sector of the retina, 1.3 mm of each side of the optic nerve, untreated 23 microns, p<0.05) was 50 microns, the “effect on photoreceptor degeneration (in words)” value [1] was “rescued from degeneration” and the “effect on thickness of IPL / adjacent retinal layers (in words)” value [1] was “significantly greater”. The “effective dose per rat (daily intramuscular injection)” value (RCS rats, dose needed to obtain the same effect on photoreceptor degeneration and retinal layer thickness) was 0.01-0.5 microgram and the “number of rows of photoreceptors in the ONL, fold higher than non-treated” value (points 0.8 mm and 1.7 mm away from the optic nerve, Group 3 vs Group 2, p<0.001) was 2 ×.

Source: US5891847A, “Treatment of degenerative eye disorders” (Ramot University Authority for Applied Research and …, priority 1992, dated 1999)
